Source: ChEMBL document CHEMBL4806959, “Antagonistic peptides for frizzled-1 and frizzled-2” (2015)
Active and inactive are the calls of the source. The rule behind the calls is not given here. Positions of bridges follow the written chain, without caps; N, C: chain ends. Residues, ends and D or L forms follow the SMILES beside them.

Columns and labels:
Frizzled-2 [1] = biological target: T1, Frizzled-2 (Homo sapiens, UniProt Q14332); assay: Antagonist activity at Wnt3a-stimulaed human frizzled-2 expressed in human HEK293superTOP flash cells incubated for 24 hrs by luciferase reporter gene assay; assay type: functional, cell-based; conditions: HEK293, filed as antagonist
T1 sequence (Q14332 24-565 limits assumed): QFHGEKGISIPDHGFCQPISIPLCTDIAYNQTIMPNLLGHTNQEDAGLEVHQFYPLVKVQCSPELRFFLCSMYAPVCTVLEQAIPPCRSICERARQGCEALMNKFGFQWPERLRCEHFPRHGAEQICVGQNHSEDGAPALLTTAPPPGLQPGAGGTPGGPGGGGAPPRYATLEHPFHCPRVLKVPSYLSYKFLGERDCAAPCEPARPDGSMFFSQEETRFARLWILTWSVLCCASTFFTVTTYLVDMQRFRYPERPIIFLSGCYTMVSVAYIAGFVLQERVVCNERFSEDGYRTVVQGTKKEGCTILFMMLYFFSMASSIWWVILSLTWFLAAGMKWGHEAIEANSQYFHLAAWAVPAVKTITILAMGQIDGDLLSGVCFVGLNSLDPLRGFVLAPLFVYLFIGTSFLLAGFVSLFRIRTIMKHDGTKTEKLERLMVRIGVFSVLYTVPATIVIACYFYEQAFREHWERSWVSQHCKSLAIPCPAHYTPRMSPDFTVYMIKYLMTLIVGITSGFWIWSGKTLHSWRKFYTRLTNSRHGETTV

Mus musculus [2] = assay: Cardioprotective activity against myocardial infarction Swiss mouse model assessed as animal mortality at 6 ug/kg/day, sc via osmotic pumps for 5 weeks (reference value: 35%); assay type: functional; conditions: 840 h, at 6 µg/kg/day
Mus musculus [3] = assay: Cardioprotective activity against myocardial infarction Swiss mouse model assessed as increase in amount of blood vessels in heart at 6 ug/kg/day, sc via osmotic pumps for 5 weeks by immunohistochemical staining analysis; assay type: functional, organism-based; conditions: dose 6.0 µg/kg/day
Mus musculus [4] = assay: Cardioprotective activity against myocardial infarction Swiss mouse model assessed as reduction in infarction expansion in heart at 6 ug/kg/day, sc via osmotic pumps for 5 weeks by macroscopic analysis; assay type: functional, organism-based; conditions: dose 6.0 µg/kg/day
Mus musculus [5] = assay: Cardioprotective activity against myocardial infarction Swiss mouse model assessed as ratio of maximum negative slope to pressure of negative slope at 6 ug/kg/day, sc via osmotic pumps for 5 weeks by Millar pressure recording based analysis (reference value: 33.29 +/-1.14 1/sec); assay type: functional; conditions: dose 6 µg/kg/day
Mus musculus [6] = assay: Cardioprotective activity against myocardial infarction Swiss mouse model assessed as increase in ejection fraction at 6 ug/kg/day, sc via osmotic pumps for 5 weeks by echocardiographic analysis relative to control; assay type: functional; conditions: dose 6 µg/kg/day
Mus musculus [7] = assay: Cardioprotective activity against myocardial infarction Swiss mouse model assessed as LVAd at 6 ug/kg/day, sc via osmotic pumps for 5 weeks by echocardiographic analysis (reference value: 0.5 +/-0.01 cm2); assay type: functional; conditions: dose 6 µg/kg/day
Mus musculus [8] = assay: Cardioprotective activity against myocardial infarction Swiss mouse model assessed as reduction in infarct area in heart at 6 ug/kg/day, sc via osmotic pumps for 2 to 5 weeks by immunohistochemical staining analysis; assay type: functional, organism-based; conditions: dose 6.0 µg/kg/day, time 2-5 weeks
Frizzled-2 [9] = biological target: T1, Frizzled-2; assay: Antagonist activity at Wnt3a-stimulated frizzled-2 (unknown origin) expressed in human HEK293superTOP flash cells incubated for 24 hrs by luciferase reporter gene assay; assay type: functional, cell-based; conditions: HEK293, filed as antagonist
Mus musculus [10] = assay: Cardioprotective activity against myocardial infarction Swiss mouse model assessed as reduction in wet lung weight at 6 ug/kg/day, sc via osmotic pumps for 5 weeks; assay type: functional, organism-based; conditions: dose 6.0 µg/kg/day
[11] = biological target: Frizzled-2 (Rattus norvegicus) (UniProt Q08464); assay: Agonist activity at rat frizzled-2 expressed in CHO cells by luciferase reporter gene assay; assay type: cell-based
Frizzled-2 (Rattus norvegicus), sequence (Q08464 29-570 limits assumed): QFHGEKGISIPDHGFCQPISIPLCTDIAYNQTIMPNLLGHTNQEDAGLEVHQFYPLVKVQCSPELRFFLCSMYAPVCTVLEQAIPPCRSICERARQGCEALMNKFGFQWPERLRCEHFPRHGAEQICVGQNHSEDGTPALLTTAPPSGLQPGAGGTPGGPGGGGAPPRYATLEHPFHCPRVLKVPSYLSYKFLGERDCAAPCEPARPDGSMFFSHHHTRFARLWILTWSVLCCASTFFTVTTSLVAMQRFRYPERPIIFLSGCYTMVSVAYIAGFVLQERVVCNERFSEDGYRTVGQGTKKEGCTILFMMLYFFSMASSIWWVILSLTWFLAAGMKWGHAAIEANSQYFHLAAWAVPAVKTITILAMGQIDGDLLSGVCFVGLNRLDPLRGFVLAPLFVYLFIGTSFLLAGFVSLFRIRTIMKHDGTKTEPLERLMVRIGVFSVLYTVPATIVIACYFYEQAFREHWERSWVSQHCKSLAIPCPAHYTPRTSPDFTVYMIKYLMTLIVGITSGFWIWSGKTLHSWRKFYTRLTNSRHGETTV

Mus musculus [12] = assay: Cardioprotective activity against myocardial infarction Swiss mouse model assessed as increase in myofibroblast number at 6 ug/kg/day, sc via osmotic pumps for 5 weeks by immunohistochemical staining analysis; assay type: functional, organism-based; conditions: dose 6.0 µg/kg/day
[13] = biological target: T2, Frizzled-4 (Homo sapiens) (UniProt Q9ULV1); assay: Antagonist activity at Wnt3a-stimulaed human frizzled-4 expressed in human HEK293superTOP flash cells at 10 nM incubated for 24 hrs by luciferase reporter gene assay; assay type: functional, cell-based; conditions: HEK293
T2 sequence (whole entry): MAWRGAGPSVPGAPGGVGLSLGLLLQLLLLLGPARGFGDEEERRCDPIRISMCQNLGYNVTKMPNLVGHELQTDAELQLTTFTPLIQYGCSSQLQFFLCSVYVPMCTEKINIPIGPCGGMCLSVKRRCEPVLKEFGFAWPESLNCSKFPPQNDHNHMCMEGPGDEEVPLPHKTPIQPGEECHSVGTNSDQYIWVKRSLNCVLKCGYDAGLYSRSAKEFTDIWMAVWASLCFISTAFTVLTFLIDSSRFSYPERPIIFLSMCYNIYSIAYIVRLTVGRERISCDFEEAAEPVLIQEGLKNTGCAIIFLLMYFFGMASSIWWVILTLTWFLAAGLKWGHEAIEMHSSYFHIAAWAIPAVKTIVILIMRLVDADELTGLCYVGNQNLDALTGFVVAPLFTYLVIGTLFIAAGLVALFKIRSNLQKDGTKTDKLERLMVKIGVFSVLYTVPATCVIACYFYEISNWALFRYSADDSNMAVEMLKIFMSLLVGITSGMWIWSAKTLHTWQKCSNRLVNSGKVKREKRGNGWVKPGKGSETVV

Mus musculus [14] = assay: Cardioprotective activity against myocardial infarction Swiss mouse model assessed as increase in infarct area thickness in heart at 6 ug/kg/day, sc via osmotic pumps for 2 to 5 weeks by immunohistochemical staining analysis; assay type: functional, organism-based; conditions: dose 6.0 µg/kg/day, time 2-5 weeks
[15] = biological target: Frizzled-1 (Rattus norvegicus) (UniProt Q08463); assay: Agonist activity at rat frizzled-1 expressed in human HEK293superTOP flash cells by luciferase reporter gene assay; assay type: cell-based; conditions: HEK293
Frizzled-1 (Rattus norvegicus), sequence (Q08463 whole entry): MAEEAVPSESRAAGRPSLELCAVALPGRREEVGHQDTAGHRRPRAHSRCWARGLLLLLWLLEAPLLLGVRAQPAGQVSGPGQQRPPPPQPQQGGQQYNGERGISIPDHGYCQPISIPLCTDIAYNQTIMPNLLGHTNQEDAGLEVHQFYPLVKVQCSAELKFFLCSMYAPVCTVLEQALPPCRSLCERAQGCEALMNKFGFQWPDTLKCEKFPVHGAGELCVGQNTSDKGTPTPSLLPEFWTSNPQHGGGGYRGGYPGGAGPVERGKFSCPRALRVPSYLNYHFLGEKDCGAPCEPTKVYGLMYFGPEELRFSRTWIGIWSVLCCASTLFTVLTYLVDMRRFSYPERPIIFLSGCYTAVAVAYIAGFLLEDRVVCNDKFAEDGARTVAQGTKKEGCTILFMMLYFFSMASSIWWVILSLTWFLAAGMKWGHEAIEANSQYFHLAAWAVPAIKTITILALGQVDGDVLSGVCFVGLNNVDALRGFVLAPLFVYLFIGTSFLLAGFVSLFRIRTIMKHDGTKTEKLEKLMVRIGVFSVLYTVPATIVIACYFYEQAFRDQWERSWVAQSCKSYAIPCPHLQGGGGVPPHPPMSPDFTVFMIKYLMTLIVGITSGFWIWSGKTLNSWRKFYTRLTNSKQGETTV

[16] = biological target: Frizzled-5 (Homo sapiens) (UniProt Q13467); assay: Antagonist activity at Wnt3a-stimulaed frizzled-5 (unknown origin) expressed in human HEK293superTOP flash cells incubated for 24 hrs by luciferase reporter gene assay; assay type: functional, cell-based; conditions: HEK293
Frizzled-5 (Homo sapiens), sequence (Q13467 whole entry): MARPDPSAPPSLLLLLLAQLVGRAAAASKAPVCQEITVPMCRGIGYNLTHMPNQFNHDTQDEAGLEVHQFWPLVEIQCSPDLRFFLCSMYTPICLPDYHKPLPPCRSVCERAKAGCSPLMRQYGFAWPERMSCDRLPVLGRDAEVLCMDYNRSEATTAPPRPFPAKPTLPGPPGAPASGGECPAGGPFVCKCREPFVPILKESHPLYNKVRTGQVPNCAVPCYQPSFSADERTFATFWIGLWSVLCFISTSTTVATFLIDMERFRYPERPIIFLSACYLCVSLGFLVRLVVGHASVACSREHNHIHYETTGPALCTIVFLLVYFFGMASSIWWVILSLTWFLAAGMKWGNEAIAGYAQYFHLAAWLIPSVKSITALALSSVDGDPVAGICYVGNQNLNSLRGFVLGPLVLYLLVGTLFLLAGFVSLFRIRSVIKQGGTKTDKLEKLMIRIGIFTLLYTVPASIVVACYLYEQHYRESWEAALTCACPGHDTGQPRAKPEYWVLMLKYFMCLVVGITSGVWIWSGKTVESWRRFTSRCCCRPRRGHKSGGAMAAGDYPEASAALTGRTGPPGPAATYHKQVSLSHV

[17] = biological target: Frizzled-1 (Rattus norvegicus) (UniProt Q08463); assay: Agonist activity at rat frizzled-1 expressed in CHO cells by luciferase reporter gene assay; assay type: cell-based
Rattus norvegicus = species: Rattus norvegicus; assay: Selectivity index, ratio of IC50 for Wnt3a-stimulated rat frizzled-1 expressed in human HEK293superTOPFlash cells to IC50 for Wnt3a-stimulated rat frizzled-2 expressed in human HEK293superTOPFlash cells; assay type: cell-based
Mus musculus [18] = assay: Cardioprotective activity against myocardial infarction Swiss mouse model assessed as ventricular dilation at 6 ug/kg/day, sc via osmotic pumps for 5 weeks by macroscopic analysis; assay type: functional, organism-based; conditions: dose 6.0 µg/kg/day
Frizzled-2 [19] = biological target: T1, Frizzled-2; assay: Antagonist activity at frizzled-2 (unknown origin) expressed in human HEK293superTOP flash cells incubated for 24 hrs by luciferase reporter gene assay; assay type: functional, cell-based; conditions: HEK293
Mus musculus [20] = assay: Cardioprotective activity against myocardial infarction Swiss mouse model assessed as ratio of maximum positive slope to pressure of positive slope at 6 ug/kg/day, sc via osmotic pumps for 5 weeks by Millar pressure recording based analysis (reference value: 43.78 +/-1.93 1/sec); assay type: functional; conditions: dose 6 µg/kg/day
Mus musculus [21] = assay: Cardioprotective activity against myocardial infarction Swiss mouse model assessed as ESV_L at 6 ug/kg/day, sc via osmotic pumps for 5 weeks by echocardiographic analysis (reference value: 0.179 +/-0.007 cm3); assay type: functional; conditions: dose 6 µg/kg/day
[22] = biological target: Frizzled-1 (Rattus norvegicus) (UniProt Q08463); assay: Agonist activity at rat frizzled-1 expressed in African green monkey COS7 cells by luciferase reporter gene assay; assay type: cell-based
Mus musculus [23] = assay: Cardioprotective activity against myocardial infarction Swiss mouse model assessed as increase in myofibroblast number at 6 ug/kg/day, sc via osmotic pumps for 2 weeks by immunohistochemical staining analysis relative to control; assay type: functional; conditions: dose 6 µg/kg/day
[24] = biological target: Frizzled-2 (Rattus norvegicus) (UniProt Q08464); assay: Agonist activity at rat frizzled-2 expressed in human HEK293superTOP flash cells by luciferase reporter gene assay; assay type: cell-based; conditions: HEK293
Mus musculus [25] = assay: Cardioprotective activity against myocardial infarction Swiss mouse model assessed as EDV_L at 6 ug/kg/day, sc via osmotic pumps for 5 weeks by echocardiographic analysis (reference value: 0.214 +/-0.02 cm3); assay type: functional; conditions: dose 6 µg/kg/day
Mus musculus [26] = assay: Cardioprotective activity against myocardial infarction Swiss mouse model assessed as LVAs at 6 ug/kg/day, sc via osmotic pumps for 5 weeks by echocardiographic analysis (reference value: 0.44 +/-0.01 cm2); assay type: functional; conditions: dose 6 µg/kg/day
[27] = biological target: Frizzled-1 (Mus musculus) (UniProt O70421); assay: Antagonist activity at Wnt3a-stimulaed mouse frizzled-1 expressed in human HEK293superTOP flash cells incubated for 24 hrs by luciferase reporter gene assay; assay type: cell-based; conditions: HEK293, filed as antagonist
Frizzled-1 (Mus musculus), sequence (O70421 whole entry, looked up): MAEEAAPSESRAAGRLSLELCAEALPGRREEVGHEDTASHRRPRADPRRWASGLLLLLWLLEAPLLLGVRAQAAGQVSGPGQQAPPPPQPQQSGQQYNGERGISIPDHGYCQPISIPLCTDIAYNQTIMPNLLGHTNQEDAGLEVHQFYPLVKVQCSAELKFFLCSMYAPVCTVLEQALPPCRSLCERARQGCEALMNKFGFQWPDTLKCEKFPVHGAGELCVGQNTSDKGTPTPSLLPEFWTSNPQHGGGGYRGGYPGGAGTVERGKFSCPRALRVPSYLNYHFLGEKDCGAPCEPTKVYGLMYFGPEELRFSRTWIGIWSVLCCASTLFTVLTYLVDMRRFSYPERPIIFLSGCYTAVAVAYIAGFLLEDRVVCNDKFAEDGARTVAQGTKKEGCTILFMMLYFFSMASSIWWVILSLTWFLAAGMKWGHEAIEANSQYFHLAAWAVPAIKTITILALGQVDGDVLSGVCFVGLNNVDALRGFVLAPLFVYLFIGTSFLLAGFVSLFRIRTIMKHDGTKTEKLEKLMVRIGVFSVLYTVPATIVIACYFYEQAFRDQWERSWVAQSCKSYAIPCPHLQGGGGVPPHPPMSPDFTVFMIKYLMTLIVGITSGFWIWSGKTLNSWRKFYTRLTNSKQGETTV

[28] = biological target: Frizzled-2 (Rattus norvegicus) (UniProt Q08464); assay: Agonist activity at rat frizzled-2 expressed in African green monkey COS7 cells by luciferase reporter gene assay; assay type: cell-based
[29] = biological target: Frizzled-5 (Homo sapiens) (UniProt Q13467); assay: Antagonist activity at Wnt3a-stimulaed human frizzled-5 expressed in human HEK293superTOP flash cells at 10 nM incubated for 24 hrs by luciferase reporter gene assay; assay type: functional, cell-based; conditions: HEK293
[30] = biological target: Frizzled-2 (Mus musculus) (UniProt Q9JIP6); assay: Antagonist activity at Wnt3a-stimulaed mouse frizzled-2 expressed in human HEK293superTOP flash cells incubated for 24 hrs by luciferase reporter gene assay; assay type: cell-based; conditions: HEK293, filed as antagonist
Frizzled-2 (Mus musculus), sequence (Q9JIP6 whole entry, looked up): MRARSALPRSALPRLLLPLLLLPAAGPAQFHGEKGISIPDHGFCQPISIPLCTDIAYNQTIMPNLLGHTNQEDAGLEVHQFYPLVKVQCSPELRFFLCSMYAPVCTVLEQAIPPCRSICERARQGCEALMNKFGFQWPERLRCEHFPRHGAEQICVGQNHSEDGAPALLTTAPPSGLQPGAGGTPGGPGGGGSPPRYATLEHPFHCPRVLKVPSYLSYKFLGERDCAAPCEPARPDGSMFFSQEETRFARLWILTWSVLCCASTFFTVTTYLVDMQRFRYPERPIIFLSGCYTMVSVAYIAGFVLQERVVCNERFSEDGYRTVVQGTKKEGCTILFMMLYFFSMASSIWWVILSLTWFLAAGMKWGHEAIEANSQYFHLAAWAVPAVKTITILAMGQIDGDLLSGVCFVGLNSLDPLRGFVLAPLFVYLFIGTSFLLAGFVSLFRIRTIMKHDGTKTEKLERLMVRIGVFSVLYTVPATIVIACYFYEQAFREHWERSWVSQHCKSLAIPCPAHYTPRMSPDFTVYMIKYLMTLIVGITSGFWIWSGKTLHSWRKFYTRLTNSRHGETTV

[31] = biological target: Frizzled-1 (Homo sapiens) (UniProt Q9UP38); assay: Antagonist activity at Wnt3a-stimulaed human frizzled-1 expressed in human HEK293superTOP flash cells incubated for 24 hrs by luciferase reporter gene assay; assay type: functional, cell-based; conditions: HEK293, filed as antagonist
Frizzled-1 (Homo sapiens), sequence (Q9UP38 70-647 limits assumed): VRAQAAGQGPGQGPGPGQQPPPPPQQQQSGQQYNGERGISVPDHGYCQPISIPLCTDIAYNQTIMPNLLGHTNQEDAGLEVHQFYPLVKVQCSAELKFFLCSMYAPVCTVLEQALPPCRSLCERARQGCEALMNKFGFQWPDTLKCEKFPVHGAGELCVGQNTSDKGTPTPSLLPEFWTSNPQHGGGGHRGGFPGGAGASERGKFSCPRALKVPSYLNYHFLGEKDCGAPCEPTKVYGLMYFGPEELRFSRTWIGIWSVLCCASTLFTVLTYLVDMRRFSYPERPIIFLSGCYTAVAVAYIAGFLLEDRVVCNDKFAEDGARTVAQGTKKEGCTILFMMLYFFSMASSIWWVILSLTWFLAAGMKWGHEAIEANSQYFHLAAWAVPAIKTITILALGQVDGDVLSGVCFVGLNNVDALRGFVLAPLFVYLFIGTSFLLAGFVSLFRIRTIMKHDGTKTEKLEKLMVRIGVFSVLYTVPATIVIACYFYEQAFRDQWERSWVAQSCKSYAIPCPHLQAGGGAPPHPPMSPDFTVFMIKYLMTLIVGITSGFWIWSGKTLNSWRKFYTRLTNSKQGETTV

[32] = biological target: T2, Frizzled-4 (Homo sapiens); assay: Antagonist activity at Wnt3a-stimulaed frizzled-4 (unknown origin) expressed in human HEK293superTOP flash cells incubated for 24 hrs by luciferase reporter gene assay; assay type: functional, cell-based; conditions: HEK293
Mus musculus [33] = assay: Cardioprotective activity against myocardial infarction Swiss mouse model assessed as increase in alpha-SMA protein expression in heart at 6 ug/kg/day, sc via osmotic pumps for 5 weeks by western blot analysis; assay type: functional, organism-based; conditions: dose 6.0 µg/kg/day
Mus musculus [34] = assay: Cardioprotective activity against myocardial infarction Swiss mouse model assessed as increase in alpha-SMA gene expression in heart at 6 ug/kg/day, sc via osmotic pumps for 5 weeks by qPCR analysis; assay type: functional, organism-based; conditions: dose 6.0 µg/kg/day
Mus musculus [35] = assay: Cardioprotective activity against myocardial infarction Swiss mouse model assessed as reduction in collagen level in infarct area at 6 ug/kg/day, sc via osmotic pumps for 5 weeks by immunohistochemical staining analysis; assay type: functional, organism-based; conditions: dose 6.0 µg/kg/day
Mus musculus [36] = assay: Cardioprotective activity against myocardial infarction Swiss mouse model assessed as SV_L at 6 ug/kg/day, sc via osmotic pumps for 5 weeks by echocardiographic analysis (reference value: 0.035 +/-0.005 cm3); assay type: functional; conditions: dose 6 µg/kg/day
[37] = biological target: T2, Frizzled-4 (Homo sapiens); assay: Agonist activity at frizzled-4 (unknown origin) expressed in human HEK293superTOP flash cells by luciferase reporter gene assay; assay type: functional, cell-based; conditions: HEK293
[38] = biological target: Frizzled-5 (Homo sapiens) (UniProt Q13467); assay: Agonist activity at frizzled-5 (unknown origin) expressed in human HEK293superTOP flash cells by luciferase reporter gene assay; assay type: functional, cell-based; conditions: HEK293

CSCC[C@H](NC(=O)CNC(=O)[C@H](CCC(=O)O)NC(=O)[C@H](CO)NC(=O)[C@@H](NC(=O)[C@H](CCCCN)NC(=O)[C@H](CC(N)=O)NC(=O)[C@H](CS)NC(C)=O)[C@@H](C)O)C(=O)N[C@@H](CC(=O)O)C(=O)NCC(=O)N[C@@H](CS)C(=O)N[C@@H](CCC(=O)O)C(=O)N[C@@H](CC(C)C)C(N)=O (Ac-CNKTSEGMDGCEL-NH2)
inhibition (Frizzled-2 [1]): Active | mortality at 0.006 mg/kg/day (Mus musculus [2]): 0% | Activity (Mus musculus [3]): Active | Activity (Mus musculus [4]): Active | Activity (Mus musculus [5]): 32.84 s⁻¹ | fold change (FC) (Mus musculus [6]): 2 | Activity (Mus musculus [7]): 0.38 cm2 | Activity (Mus musculus [8]): Active | inhibition (Frizzled-2 [9]): Dose-Dependent Effect | Activity (Mus musculus [10]): Active | Activity [11]: inactive | Activity (Mus musculus [12]): Active | inhibition [13]: inactive | Activity (Mus musculus [14]): Active | Activity [15]: inactive | inhibition [16]: inactive | Activity [17]: inactive | Ratio IC50 (Rattus norvegicus): 100 | Activity (Mus musculus [18]): Active | inhibition (Frizzled-2 [19]): inactive | Activity (Mus musculus [20]): 69.13 s⁻¹ | Activity (Mus musculus [21]): 0.09 cm3 | Activity [22]: inactive | fold change (FC) (Mus musculus [23]): >4 | Activity [24]: inactive | Activity (Mus musculus [25]): 0.132 cm3 | Activity (Mus musculus [26]): 0.3 cm2 | inhibition [27]: Active | Activity [28]: inactive | inhibition [29]: inactive | inhibition [30]: Active | inhibition [31]: Active | inhibition [32]: inactive | Activity (Mus musculus [33]): Active | Activity (Mus musculus [34]): Active | Activity (Mus musculus [35]): Active | Activity (Mus musculus [36]): 0.041 cm3

CSCC[C@@H]1NC(=O)CNC(=O)[C@H](CCC(=O)O)NC(=O)[C@H](CO)NC(=O)[C@H]([C@@H](C)O)NC(=O)[C@H](CCCCN)NC(=O)[C@H](CC(N)=O)NC(=O)[C@@H](NC(C)=O)CSSC[C@@H](C(=O)N[C@@H](CCC(=O)O)C(=O)N[C@@H](CC(C)C)C(N)=O)NC(=O)CNC(=O)[C@H](CC(=O)O)NC1=O (Ac-CNKTSEGMDGCEL-NH2; disulfide 1-11)
Activity [37]: inactive | Activity [38]: inactive

CC(=O)NCC(=O)N[C@@H](CO)C(=O)N[C@@H](CS)C(=O)N[C@@H](CO)C(=O)N[C@@H](CC(C)C)C(=O)N[C@@H](CCCCN)C(=O)N[C@H](C(=O)N[C@@H](CS)C(=O)N[C@@H](Cc1c[nH]c2ccccc12)C(=O)N[C@@H](CC(C)C)C(=O)N[C@@H](CCC(N)=O)C(=O)N[C@@H](CC(C)C)C(=O)N[C@@H](C)C(=O)N[C@@H](CC(=O)O)C(N)=O)[C@@H](C)O (Ac-GSCSLKTCWLQLAD-NH2)
Activity [11]: inactive | Activity [15]: inactive | Activity [17]: inactive | Activity [22]: inactive | Activity [24]: inactive | Activity [28]: inactive
